In patent US12180226B2, “Spirotricycle RIPK1 inhibitors and methods of uses thereof” (Merck Sharp & Dohme LLC, priority 2021, dated 2024):
Structures can show the parent of a compound that is named as a salt.

molecular target: RIPK1 (recombinant GST-RIPK1 kinase domain, residues 1-327) (Homo sapiens (Human), UniProt Q13546); experiment: RIPK1-ADP-Glo Enzymatic Assay; type: biochemical; conditions: ADP-Glo; 25 nM GST-RIPK1, 300 μM ATP; assay lower limit ~25 nM; read-out: RIPK1 V0 Ec50
Protocol: RIPK1-ADP-Glo Enzymatic Assay
The enzymatic activity of RIPK1 is measured using an assay derived from ADP-Glo kit (TMPromega), which provides a luminescent-based ADP detection system. Specifically, the ADP generated by RIPK1 kinase is proportionally detected as luminescent signals in a homogenous fashion. In this context, the assessment of the inhibitory effect of small molecules (EC50) is measured by the effectiveness of the compounds to inhibit the ATP to ADP conversion by RIPK1.
In this assay, the potency (EC50) of each compound was determined from a ten-point (1:3 serial dilution; top compound concentration of 100000 nM) titration curve using the following outlined procedure. The assay bottom or lower limit of confidence is ˜25 nM. To each well of a white ProxiPlus 384 well-plate, 30 nL of compound (1% DMSO in final assay volume of 3 μL) was dispensed, followed by the addition of 2 μL of 1×assay buffer (25 mM Hepes 7.3, 20 mM MgCl2, 50 mM NaCl, 1 mM DTT, 0.005% Tween20, and 0.02% BSA) containing 37.5 nM of GST-RIPK1 (recombinant GST-RIPK1 kinase domain (residues 1-327) enzyme produced from baculovirus-transfected Sf21 cells: MW=62 kDa). Plates were placed in an ambient temperature humidified chamber for a 30-minute pre-incubation with compound. Subsequently, each reaction was initiated by the addition of 1 μL 1×assay buffer containing 900 μM ATP and […] dephosphorylated-MBP substrate. The final reaction in each well of 3 μL consists of 25 nM of GST-RIPK1, 300 μM ATP, and 3 μM dephosphorylated-MBP. Kinase reactions were allowed to proceed for 150 minutes prior to adding ADP-Glo reagents per Promega's outlined kit protocol. Dose-response curves were generated by plotting percent effect (% product conversion; Y-axis) vs. Log10 compound concentrations (X-axis). EC50 values were calculated using a non-linear regression, four-parameters sigmoidal dose-response model.

Sequence of RIPK1 (recombinant GST-RIPK1 kinase domain, residues 1-327) (Q13546 1-327): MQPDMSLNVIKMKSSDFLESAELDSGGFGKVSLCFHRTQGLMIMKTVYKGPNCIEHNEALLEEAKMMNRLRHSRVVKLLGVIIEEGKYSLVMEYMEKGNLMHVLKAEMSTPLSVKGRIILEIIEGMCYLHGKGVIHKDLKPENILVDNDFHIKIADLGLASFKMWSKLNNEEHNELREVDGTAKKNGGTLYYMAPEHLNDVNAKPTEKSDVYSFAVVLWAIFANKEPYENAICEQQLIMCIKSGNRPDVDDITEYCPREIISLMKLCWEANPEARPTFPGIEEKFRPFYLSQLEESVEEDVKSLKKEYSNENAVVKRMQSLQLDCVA

SMILES	EC50 [nM]
CN(C)c1cccc(C(=O)N2CCC3(CC2)O[C@@H]2CC[C@@H](c4cccc(F)c4)N2C3=O)c1 [Example 6.124, (5′S,7a′R)-1-[3-(dimethylamino)-benzene-1-carbonyl]-5′-(3-fluorophenyl) tetrahydro-3′H-spiro [piperidine-4,2′-pyrrolo[2,1-b][1,3]-oxazol]-3′-one]	< 25
Cc1ccccc1[C@@H]1CC[C@H]2OC3(CCN(C(=O)c4ccccc4)CC3)C(=O)N21 [Example 6.135, (5′S,7a′R)-1-(benzene-carbonyl)-5′-(2-meth-ylphenyl)tetrahydro-3′H-spiro[piperidine-4,2′-pyrrolo[2,1-b] [1,3]oxazol]-3′-one]	457
O=C(c1cccc(F)c1)N1CCC2(CC1)O[C@@H]1CC[C@@H](c3ccc(F)cc3)N1C2=O [Example 7.1, (5′S,7a′R)-1-(3-Fluorobenzoyl)-5′-(4-fluorophenyl)tetrahydro-3′H-spiro[piperidine-4,2′-pyrrolo[2,1-b]oxazol]-3′-one]	121
CC1CC2(CCN1c1ccnc3ccnn13)O[C@@H]1CC[C@@H](c3ccccc3)N1C2=O (stereo partly drawn) [Example 4.247, (4R,5′S,7a′R)-2-methyl-5′-phenyl-1-(pyrazolo[1,5-a]pyrimidin-7-yl)tetrahydro-3′H-spiro[piperidine-4,2′-pyrrolo[2,1-b] [1,3]oxazol]-3′-one]	86.5
O=C(c1ccoc1)N1CCC2(CC1)O[C@@H]1CC[C@@H](c3ccccc3)N1C2=O [Example 6.145, (5′S,7a′R)-1-(furan-3-carbonyl)-5′-phenyl-tetrahydro-3′H-spiro [piperidine-4,2′-pyrrolo[2,1-b][1,3]oxazol]-3′-one]	< 25
Cc1cc(C#N)cnc1N1CCC2(CC1)O[C@@H]1CC[C@@H](c3cc(F)cc(F)c3)N1C2=O [Example 4.47, 6-[(5′S,7a′R)-5′-(3,5-difluorophenyl)-3′-oxotetrahydro-1H,3′H-spiro[piperidine-4,2′-pyrrolo[2,1-b] [1,3]oxazol]-1-yl]-5-methylpyridine-3-carbonitrile]	< 25
N#Cc1cccc(CN2CCC3(CC2)O[C@@H]2CC[C@@H](c4cc(F)cc(F)c4)N2C3=O)c1 [Example 22.6, 3-{[(5′S,7a′R)-5′-(3,5-difluorophenyl)-3′-oxotetrahydro-1H,3′H-spiro[piperidine-4,2′-pyrrolo[2,1-b][1,3]oxazol]-1-yl]methyl}benzonitrile]	234
N#CC1(NC(=O)c2nc(N3CCC4(CC3)O[C@@H]3CC[C@@H](c5cc(F)cc(F)c5)N3C4=O)ncc2F)CC1 [Example 7.12, N-(1-cyanocyclopropyl)-2-[(5′S,7a′R)-5′-(3,5-difluorophenyl)-3'-oxotetrahydro-1H,3′H-spiro[piperidine-4,2′-pyrrolo[2,1-b][1,3]oxazol]-1-yl]-5-fluoropyrimidine-4-carboxamide]	165
CCOc1ccc(N2CCC3(CC2)O[C@@H]2CC[C@@H](c4cc(F)cc(F)c4)N2C3=O)n2nccc12 [Example 19.2, (5′S,7a′R)-5′-(3,5-difluorophenyl)-1-(4-ethoxypyrazolo[1,5-a]pyridin-7-yl)tetrahydro-3′H-spiro[piperidine-4,2′-pyrrolo[2,1-b]oxazol]-3′-one, TFA salt]	< 25
O=C1N2[C@@H](CC[C@H]2c2ccccc2)OC12CCN(c1cccc3ncnn13)CC2F (single isomer, unassigned) [Example 13.18, (3[S or R], 4 [R or S], 5′S,7a′R)-1-([1,2,4]triazolo[1,5-a]pyridin-5-yl)-3-fluoro-5′-phenyltetrahydro-3′H-spiro[piperidine-4,2′-pyrrolo[2,1-b]oxazol]-3′-one, TFA salt]	< 25
O=C1N2[C@@H](CC[C@H]2c2cc(F)cc(F)c2)OC12CCN(c1ccnc(C(F)F)n1)CC2 [Example 4.9, (5′S,7a′R)-1-[2-(difluoromethyl)pyrimidin-4-yl]-5′-(3,5-difluorophenyl)tetrahydro-3′H-spiro[piperidine-4,2′-pyrrolo[2,1-b] [1,3]oxazol]-3′-one]	< 25
O=C1N2[C@@H](CC[C@H]2C2CCCC2)OC12CCN(c1ccnc3c(F)cnn13)CC2 [Example 4.88, (5′S,7a′R)-5′-cyclopentyl-1-(3-fluoropyrazolo [1,5-a]pyrimidin-7-yl)tetrahydro-3′H-spiro[piperidine-4,2′-pyrrolo[2,1-b]oxazol]-3′-one, TFA salt]	< 25
N#Cc1ccnc(N2CCC3(CC2)O[C@@H]2CC[C@@H](c4cccc(F)c4)N2C3=O)c1 [Example 4.54, 2-[(5′S,7a′R)-5′-(3-fluorophenyl)-3′-oxotetrahydro-1H,3′H-spiro[piperidine-4,2′-pyrrolo[2,1-b] [1,3]oxazol]-1-yl]pyridine-4-carbonitrile]	31.1
O=C(c1cc2n(n1)CCCC2)N1CCC2(CC1)O[C@@H]1CC[C@@H](c3cc(F)cc(F)c3)N1C2=O [Example 5.75, (5′S,7a′R)-5′-(3,5-difluoro-phenyl)-1-(4,5,6,7-tetra-hydropyrazolo[1,5-a]-pyridine-2-carbonyl)tetra-hydro-3′H-spiro[piperi-dine-4,2′-pyrrolo[2,1-b]oxazol]-3′-one]	524
O=C1N2[C@@H](CC[C@H]2c2cc(F)ccc2F)OC12CCN(c1ccnc3ccnn13)CC2 [Example 4.114, (5′S,7a′R)-5′-(2,5-difluorophenyl)-1-(pyrazolo[1,5-a]pyrimidin-7-yl)tetrahydro-3′H-spiro[piperidine-4,2′-pyrrolo[2,1-b] [1,3]oxazol]-3′-one]	< 25
O=C(c1ccccc1)N1CCC2(CC1)S[C@@H]1CC[C@@H](c3ccccc3)N1C2=O [Example 1.23, (5′S,7a′R)-1-(benzenecarbonyl)-5′-phenyltetrahydro-3′H-spiro[piperidine-4,2′-pyrrolo[2,1-b] [1,3]thiazol]-3′-one]	26.1
N#Cc1nccc(N2CCC3(CC2)O[C@@H]2CC[C@@H](c4cc(F)cc(F)c4)N2C3=O)n1 [Example 4.5, 4-[(5′S,7a′R)-5′-(3,5-difluorophenyl)-3′-oxotetrahydro-1H,3′H-spiro[piperidine-4,2′-pyrrolo[2,1-b] [1,3]oxazol]-1-yl]pyrimidine-2-carbonitrile]	< 25
Cc1ccnc(C(=O)N2CCC3(CC2)O[C@@H]2CC[C@@H](c4cc(F)cc(F)c4)N2C3=O)c1 [Example 6.102, (5′S,7a′R)-5′-(3,5-difluorophenyl)-1-(4-methylpyridine-2-carbonyl)tetrahydro-3′H-spiro[piperidine-4,2′-pyrrolo[2,1-b] [1,3]oxazol]-3′-one]	48.6
O=C1N2[C@@H](CC[C@H]2c2ccccc2)OC12CCN(c1ccc(-c3ncco3)c3ccnn13)CC2 [Example 21.22, (5′S,7a′R)-1-[4-(1,3-oxazol-2-yl)pyrazolo[1,5-a]pyridin-7-yl]-5′-phenyltetrahydro-3′H-spiro[piperidine-4,2′-pyrrolo[2,1-b][1,3]oxazol]-3′-one]	< 25
Cc1cccc(C(=O)N2CCC3(CC2)O[C@@H]2CC[C@@H](c4ccccc4)N2C3=O)c1F [Example 6.157, (5′S,7a′R)-1-(2-fluoro-3-methylbenzene-1-carbonyl)-5′-phenyl-tetrahydro-3′H-spiro [piperidine-4,2′-pyrrolo[2,1-b][1,3]-oxazol]-3′-one]	< 25
N#Cc1ccccc1C(=O)N1CCC2(CC1)O[C@@H]1CC[C@@H](c3ccccc3)N1C2=O [Example 6.147, 2-[(5′S,7a′R)-3′-oxo-5′-phenyltetrahydro-1H,3′H-spiro[piperi-dine-4,2′-pyrrolo[2,1-b][1,3]oxazole]-1-carbonyl]benzonitrile]	328
O=C(c1nc2ccccc2s1)N1CCC2(CC1)O[C@@H]1CC[C@@H](c3cc(F)cc(F)c3)N1C2=O [Example 6.28, (5′S,7a′R)-1-(1,3-benzothiazole-2-car-bonyl)-5′-(3,5-difluoro-phenyl)tetrahydro-3′H-spiro[piperidine-4,2′-pyrrolo[2,1-b] [1,3]oxazol]-3′-one]	30.2
Cc1nnc(N2CC3(C2)O[C@@H]2CC[C@@H](c4ccccc4F)N2C3=O)o1 [Example 4.273, (5′S,7a′R)-5′-(2-fluorophenyl)-1-(5-methyl-1,3,4-oxadiazol-2-yl)tetrahydro-3′H-spiro[azetidine-3,2′-pyrrolo[2,1-b] [1,3]oxazol]-3′-one]	566
O=C1N2[C@@H](CC[C@H]2c2ccccc2F)OC12CN(Cc1ccccc1)C2 [Example 22.7, (5′S,7a′R)-1-benzyl-5′-(2-fluorophenyl)tetrahydro-3′H-spiro[azetidine-3,2′-pyrrolo[2,1-b][1,3]oxazol]-3′-one]	103
O=C(c1cccnc1)N1CCC2(CC1)O[C@@H]1CC[C@@H](c3cc(F)cc(F)c3)N1C2=O [Example 5.64, (5′S,7a′R)-5′-(3,5-difluoro-phenyl)-1-nicotinoyltetra-hydro-3′H-spiro[piperidine-4,2′-pyrrolo[2,1-b]oxazol]-3′-one]	38.8
